Data set [1] deals with inflammatory mediator mRNA in spinal cord. The data set can be described thus: qPCR of inflammation-related genes in spinal cord of EAE mice. Format: in vivo, mouse. Particulars: normalized to GAPDH. As for the experimental part:
Total RNA from snap frozen spinal cord (pooled cervical, thoracic and lumbar region) was isolated using Trizol (Invitrogen) according to the manufacturer’s protocol. RNA concentration and purity was determined with a NanoDrop 2000 spectrophotometer (Thermo Fisher Scientific). Purity was accepted with a 260/230 nm absorbance ratio of 2.00–2.20 and a 260/280 ratio of 1.90.-2.00. For reverse transcription into cDNA, 1 μg of RNA was used with the High-Capacity cDNA Reverse Transcription kit (Life Technologies), using 50 pmol oligo-dT16 primers, according to the manufacturer’s instructions. For quantitative real-time PCR (qPCR), Power SYBR Green Master Mix (Applied Biosystems) was used according to manufacturer’s protocol. Intron-spanning primers (Table 2) were designed with Primer-BLAST [29], purchased from Eurogentec and used at 3.75 pmol per 12.5 ng cDNA in each reaction. Subsequently, qPCR was performed according to the previously published MIQE guidelines. The qPCR reaction was performed in a total volume of 20 μl in MicroAmp Optical 96-well Reaction Plates on a StepOnePlus Real-Time PCR system (Applied Biosystems). The thermal cycling conditions were an initial 10 min at 95°C followed by 50 cycles of 15 s at 95°C and 1 min at 60°C. The reaction specificity was verified by a melt curve analysis. The relative expression level of the target genes was determined by the LinRegPCR software (http://www.hfrc.nl, downloads, applications, lin reg PCR, version 2017) using the following calculation N0 = Nq/ECq (N0 = target quantity, Nq = fluorescence threshold value, E = mean PCR efficiency per amplicon, Cq = threshold cycle. The obtained values were normalized to glyceraldehyde-3-phosphate-dehydrogenase expression (GAPDH).

For data set [2] the following is noted: proposed; reference not given; cited from earlier work.

As to `O=C(NCC1CC(Br)=NO1)C1CCCN1C(=O)OCc1cnc2ccccc2c1` (stereo not drawn) [ERW1041E, 2-[(3-Bromo-4,5-dihydro-isoxazol-5-ylmethyl)-carbamoyl]-pyrrolidine-1—carboxylic acid quinolin-3-ylmethyl ester], the “IL-1ra mRNA level in spinal cord versus vehicle” value in data set [1] (Fig 7a) is recorded as “not significantly changed”. Also, in data set [1] (Fig 7b), the “IL-1β mRNA level in spinal cord versus vehicle” value is reported as “not significantly changed”. For the same compound, in data set [1] (Fig 7c), the “IFNγ mRNA level in spinal cord versus vehicle” value is “not significantly changed”. Moreover, the “iNOS mRNA level in spinal cord versus vehicle” value in data set [1] (Fig 7e) is recorded as “slightly but not significantly enhanced”. Besides, the “TNFα mRNA level in spinal cord versus vehicle” value in data set [1] (Fig 7d) was “slightly but not significantly enhanced”. In addition, the “inhibitory in vivo half-life” value in data set [2] is on record as 12 h.

The values are drawn from paper PMC5918173, “Characterization of Transglutaminase 2 activity inhibitors in monocytes in vitro and their effect in a mouse model for multiple sclerosis” (PLoS ONE, 2018).
